Test results as given in PMC8188608 (Chemical Science, 2021).

Biological target: ΔmtDXPS (Mycobacterium tuberculosis, UniProt P9WNS3, D231G/I229G/K230G/L233G/S232G/S234G)
Assay type: binding

Q: With `O=C(CCCOc1ccc(Cl)cc1Cl)NCCc1ccc(O)cc1F` [Compound 39] as the compound, how does the “fold decrease in binding affinity for ΔmtDXPS” value read?
A: ~1.5 fold
